According to patent US20250345328A1, “METHODS OF TREATING A RAS RELATED DISEASE OR DISORDER” (Revolution Medicines, Inc., priority 2023, published 2025):

System: human KRAS^G12C NSCLC NCI-H2122 xenograft tumors
Assay: NCI-H2122 xenograft, Compound A plus RMC-6291 combination
Type: in vivo
Details: immune-deficient mice; repeated daily oral administration
Protocol: The antitumor activity of Compound A in combination with RMC-6291 was evaluated using immune-deficient mice bearing human KRAS^G12C NSCLC NCI-H2122 xenograft tumors.

With `CCn1c(-c2cccnc2[C@H](C)OC)c2c3cc(ccc31)N1CCO[C@@H](C[C@H](NC(=O)[C@H](C(C)C)N(C)C(=O)C3(F)CCN(C(=O)C#CC(C)(C)N(C)C)CC3)C(=O)N3CCC[C@H](N3)C(=O)OCC(C)(C)C2)C1` [RMC-6291] the Mean tumor regression was “mean tumor regressions were not achieved”.
